Assay results: paper PMC10006169, “A phase I trial of LXS196, a protein kinase C (PKC) inhibitor, for metastatic uveal melanoma” (British Journal of Cancer, 2023)

Experiments:
[1] = system: patients with MUM; assay: Patient disposition, duration of exposure and dose interruptions; format: in vivo
Protocol: During dose escalation, patients received oral LXS196 either once daily (QD; 100–1000 mg) or twice daily (BID; 200–400 mg) in 28-day cycles until disease progression, intolerable toxicity or withdrawal of consent (Supplementary Fig. 1). Dosing was omitted on the second day of the first cycle (C1D2) to allow for longer post-dose sampling in order to better characterise PK. LXS196 was given on an empty stomach, at least 1 h before or 2 h after a meal. Dose escalation was guided by safety, PK data and a two-parameter Bayesian Logistic Regression Model (BLRM) employing escalation with overdose control (EWOC) criteria. The DLT period lasted 28 days after the first dose of LXS196. […] Upon determination of the MTD/RDE, the expansion part of the study was opened to further evaluate the safety, tolerability, PK and PD of LXS196 at the RDE in patients with MUM. No hypothesis testing was planned in this study, and therefore, no formal sample size calculation was needed. The sample size was selected to ensure the BLRM had adequate operating characteristics when selecting the MTD/RDE.
Routine safety assessments, including laboratory assessments, physical examinations, vital signs and electrocardiograms (ECGs), were conducted at regular intervals throughout the study and more frequently as needed following patient assessment by the treating physician. Adverse events (AEs) were assessed continuously according to the National Cancer Institute Common Terminology Criteria for Adverse Events (NCI-CTCAE) v4.03.

[2] = system: skin-derived melanoma cell lines driven by mutant B-Raf or N-Ras; parameters: method as in ref 18 = [18]; 18. Visser M, Papillon J, Fan J, Luzzio M, Michael W, Wang R, et al. NVP-LXS196, a novel PKC inhibitor for the treatment of uveal melanoma. Paper presented at: Abstracts of papers of the American Chem; conditions: cited from earlier work
[3] = system: pPKC delta; assay: pPKC delta in PBMCs; format: in vivo, human; conditions: all dose levels
Source text: Fresh metastatic tumour biopsies were collected at baseline (prior to first dose) and on treatment at C1D15 to evaluate the modulation of PKC substrate proteins in tumours following exposure to LXS196 and to perform exploratory transcriptome and targeted DNA sequencing. Whole blood samples (peripheral blood mononuclear cells; PBMCs) were collected pre-dose on C1D1 and D15, and at various time points post-dose on C1D1, D2, D3, D15 and D16 to evaluate the modulation of PKC substrate proteins in a surrogate tissue. Owing to the exploratory nature of this phase I study, formal statistical tests were not planned to be performed. Data are presented using descriptive statistics and visualisations. Continuous variables are described with the mean and range. Categorical variables are described using counts and percentages. PFS is described using the Kaplan–Meier (KM) method.

Q: What does the source list for `CC1(N)CCN(c2cccnc2NC(=O)c2nc(-c3ncccc3C(F)(F)F)cnc2N)CC1` [LXS196]?
A: Dose interruption by reason: adverse event ([1]; 300 mg BID (RDE) n=18): 3 (16.7) n (%); Dose interruption by reason: patient/guardian decision ([1]; 300 mg BID (RDE) n=18): 0 n (%); Dose interruption by reason: physician decision ([1]; 300 mg BID (RDE) n=18): 0 n (%); With at least one dose interruption ([1]; 300 mg BID (RDE) n=18): 3 (16.7) n (%); With more than one dose interruption ([1]; 300 mg BID (RDE) n=18): 1 (5.6) n (%); With only one dose interruption ([1]; 300 mg BID (RDE) n=18): 2 (11.1) n (%); Dose interruption by reason: adverse event ([1]; All BID n=30): 5 (16.7) n (%); Dose interruption by reason: patient/guardian decision ([1]; All BID n=30): 1 (3.3) n (%); Dose interruption by reason: physician decision ([1]; All BID n=30): 0 n (%); With at least one dose interruption ([1]; All BID n=30): 6 (20) n (%); With more than one dose interruption ([1]; All BID n=30): 3 (10.0) n (%); With only one dose interruption ([1]; All BID n=30): 3 (10) n (%); Dose interruption by reason: adverse event ([1]; All QD n=38): 11 (28.9) n (%); Dose interruption by reason: patient/guardian decision ([1]; All QD n=38): 0 n (%); Dose interruption by reason: physician decision ([1]; All QD n=38): 1 (2.6) n (%); With at least one dose interruption ([1]; All QD n=38): 11 (28.9) n (%); With more than one dose interruption ([1]; All QD n=38): 5 (13.2) n (%); With only one dose interruption ([1]; All QD n=38): 6 (15.8) n (%); Dose interruption by reason: adverse event ([1]; All patients N=68): 16 (23.5) n (%); Dose interruption by reason: patient/guardian decision ([1]; All patients N=68): 1 (1.5) n (%); Dose interruption by reason: physician decision ([1]; All patients N=68): 1 (1.5) n (%); With at least one dose interruption ([1]; All patients N=68): 17 (25) n (%); With more than one dose interruption ([1]; All patients N=68): 8 (11.8) n (%); With only one dose interruption ([1]; All patients N=68): 9 (13.2) n (%); Cellular activity [2]: no activity observed; Time post-dose to reduction in pPKC delta in PBMCs [3]: ≤ 6 h
